Where a SMILES comes first, the peptide text is derived from it. Bridges are numbered along the chain shown (N, C = ends). [ ]: non-standard residue; d: D form. The star is where a group is joined. Ileψ(thiazoline)Cys = CC[C@H](C)[C@H](N)C1=N[C@H](C(=O)*)CS1; dOrn = NCCC[C@@H](N)C(=O)O
Assays:
mites [1] = experiment: Control and elimination of mites in poultry flocks by bacitracin feed supplement (general finding); type: in vivo
From the text: This unique use is for the control and elimination of mites in poultry flocks.

mites [2] = experiment: Treatment of mite-infested chicken flock with zinc bacitracin in the feed; type: in vivo
From the text: The following example is offered to illustrate the manner in which the zinc bacitracin is used and the efficiency which it has realized. A flock of 10,000 Babcock chickens of an approximate age of 9-10 months, weighing approximately 3 pounds became heavily infested with mites. […] Ten months later the same flock again became mite infested.

Row | Compound | toxicity to mites (mites [1]; applicant's discovery, no details) | elimination of mites from infested poultry flock (mites [1]; between 100 and 200 grams of bacitracin per ton of poultry grain for several days) | disappearance of mites from infested flock (mites [2]; flock of 10,000 Babcock chickens, 9-10 months old, heavily infested, 100 grams per ton in normal feed for seven days) | effect of same treatment on re-infestation (mites [2]; same flock again mite infested ten months later, same treatment (100 grams per ton feed, seven days))
1 | CC[C@H](C)[C@H](N)C1=N[C@H](C(=O)N[C@@H](CC(C)C)C(=O)N[C@H](CCC(=O)O)C(=O)N[C@H](C(=O)N[C@H]2CCCCNC(=O)[C@H](CC(N)=O)NC(=O)[C@@H](CC(=O)O)NC(=O)[C@H](Cc3cnc[nH]3)NC(=O)[C@@H](Cc3ccccc3)NC(=O)[C@H]([C@@H](C)CC)NC(=O)[C@@H](CCCN)NC2=O)[C@@H](C)CC)CS1 [bacitracin] ({Ileψ(thiazoline)Cys}-L[dE]IK[dOrn]I[dF]H[dD]N; lactam 4-C) | toxic to mites | substantially eliminate mites | – | –
2 | zinc bacitracin | – | – | substantially all of the mites had disappeared | same effective results

Reference: patent US4335112A, “Method of treating mites in poultry” (priority 1981, dated 1982)
